These are literature values, as cited in PubChem BioAssay AID1259409 (Chemical Carcinogenesis Research Information System (CCRIS), 2018).

In the series the test system is rodent chemically induced tumor inhibition, incidence and multiplicity. The series can be described thus: CCRIS tumor inhibitor studies. The settings on record: Route [Inhibitor]: ORAL, Species: RAT.

Take `CCCCCCCCCCCCCCCC(=O)CC(=O)CCCCCCCCCCCCCCC`: the “tumour outcome (control, treated, inhibition, significance)” value was 7/14 (50%), 7/15 (47%), 6%, not significant (Carcinogen: 2,2'-DIHYDROXY-DI-N-PROPYLNITROSAMINE, 53609-64-6, N-ETHYL-N-HYDROXYETHYLNITROSAMINE, 13147-25-6, 3,2'-DIMETHYL-4-AMINO-, Carcinogen: 2,2'-DIHYDROXY-DI-N-PROPYLNITROSAMINE, 53609-64-6, N-ETHYL-N-HYDROXYETHYLNITROSAMINE, 13147-25-6, 3,2'-DIMETHYL-4-AMINO-, Dose [Inhibitor]: 0, 0.2% IN DIET FOR 32 WK BEGINNING 1 WK POST CARCINOGEN TREATMENT (STUDY DURATION: 36 WK), Strain/Sex: F344/MALE, Target Tissue: Type of Lesion: LARGE INTESTINE: ADENOMA, Dose [Carcinogen]: 1000 MG/KG BW DHPN TWICE, 1500 MG/KG BW EHEN TWICE, 75 MG/KG BW 3 TIMES ADMINISTERED OVER FIRST 3 WK, Promoter: NONE USED); 3/14 (21%), 2/15 (13%0, 38%, not significant (Carcinogen: 2,2'-DIHYDROXY-DI-N-PROPYLNITROSAMINE, 53609-64-6, N-ETHYL-N-HYDROXYETHYLNITROSAMINE, 13147-25-6, 3,2'-DIMETHYL-4-AMINO-, Carcinogen: 2,2'-DIHYDROXY-DI-N-PROPYLNITROSAMINE, 53609-64-6, N-ETHYL-N-HYDROXYETHYLNITROSAMINE, 13147-25-6, 3,2'-DIMETHYL-4-AMINO-, Dose [Inhibitor]: 0, 0.2% IN DIET FOR 32 WK BEGINNING 1 WK POST CARCINOGEN TREATMENT (STUDY DURATION: 36 WK), Strain/Sex: F344/MALE, Target Tissue: Type of Lesion: LARGE INTESTINE: CARCINOMA, Dose [Carcinogen]: 1000 MG/KG BW DHPN TWICE, 1500 MG/KG BW EHEN TWICE, 75 MG/KG BW 3 TIMES ADMINISTERED OVER FIRST 3 WK, Promoter: NONE USED); 6/14 (43%), 1/15 (7%), 84%, p<0.05 (Carcinogen: 2,2'-DIHYDROXY-DI-N-PROPYLNITROSAMINE, 53609-64-6, N-ETHYL-N-HYDROXYETHYLNITROSAMINE, 13147-25-6, 3,2'-DIMETHYL-4-AMINO-, Carcinogen: 2,2'-DIHYDROXY-DI-N-PROPYLNITROSAMINE, 53609-64-6, N-ETHYL-N-HYDROXYETHYLNITROSAMINE, 13147-25-6, 3,2'-DIMETHYL-4-AMINO-, Dose [Inhibitor]: 0, 0.2% IN DIET FOR 32 WK BEGINNING 1 WK POST CARCINOGEN TREATMENT (STUDY DURATION: 36 WK), Strain/Sex: F344/MALE, Target Tissue: Type of Lesion: LIVER: HEPATOCELLULAR CARCINOMA, Dose [Carcinogen]: 1000 MG/KG BW DHPN TWICE, 1500 MG/KG BW EHEN TWICE, 75 MG/KG BW 3 TIMES ADMINISTERED OVER FIRST 3 WK, Promoter: NONE USED); 7/14 (50%), 6/15 (40%), 20%, not significant (Carcinogen: 2,2'-DIHYDROXY-DI-N-PROPYLNITROSAMINE, 53609-64-6, N-ETHYL-N-HYDROXYETHYLNITROSAMINE, 13147-25-6, 3,2'-DIMETHYL-4-AMINO-, Carcinogen: 2,2'-DIHYDROXY-DI-N-PROPYLNITROSAMINE, 53609-64-6, N-ETHYL-N-HYDROXYETHYLNITROSAMINE, 13147-25-6, 3,2'-DIMETHYL-4-AMINO-, Dose [Inhibitor]: 0, 0.2% IN DIET FOR 32 WK BEGINNING 1 WK POST CARCINOGEN TREATMENT (STUDY DURATION: 36 WK), Strain/Sex: F344/MALE, Target Tissue: Type of Lesion: LUNG: ADENOMA, Dose [Carcinogen]: 1000 MG/KG BW DHPN TWICE, 1500 MG/KG BW EHEN TWICE, 75 MG/KG BW 3 TIMES ADMINISTERED OVER FIRST 3 WK, Promoter: NONE USED); 1/14 (7%), 3/15 (20%, -186%, not significant (Carcinogen: 2,2'-DIHYDROXY-DI-N-PROPYLNITROSAMINE, 53609-64-6, N-ETHYL-N-HYDROXYETHYLNITROSAMINE, 13147-25-6, 3,2'-DIMETHYL-4-AMINO-, Carcinogen: 2,2'-DIHYDROXY-DI-N-PROPYLNITROSAMINE, 53609-64-6, N-ETHYL-N-HYDROXYETHYLNITROSAMINE, 13147-25-6, 3,2'-DIMETHYL-4-AMINO-, Dose [Inhibitor]: 0, 0.2% IN DIET FOR 32 WK BEGINNING 1 WK POST CARCINOGEN TREATMENT (STUDY DURATION: 36 WK), Strain/Sex: F344/MALE, Target Tissue: Type of Lesion: LUNG: CARCINOMA, Dose [Carcinogen]: 1000 MG/KG BW DHPN TWICE, 1500 MG/KG BW EHEN TWICE, 75 MG/KG BW 3 TIMES ADMINISTERED OVER FIRST 3 WK, Promoter: NONE USED); 3/14 (21%), 3/15 (20%), 5%, not significant (Carcinogen: 2,2'-DIHYDROXY-DI-N-PROPYLNITROSAMINE, 53609-64-6, N-ETHYL-N-HYDROXYETHYLNITROSAMINE, 13147-25-6, 3,2'-DIMETHYL-4-AMINO-, Carcinogen: 2,2'-DIHYDROXY-DI-N-PROPYLNITROSAMINE, 53609-64-6, N-ETHYL-N-HYDROXYETHYLNITROSAMINE, 13147-25-6, 3,2'-DIMETHYL-4-AMINO-, Dose [Inhibitor]: 0, 0.2% IN DIET FOR 32 WK BEGINNING 1 WK POST CARCINOGEN TREATMENT (STUDY DURATION: 36 WK), Strain/Sex: F344/MALE, Target Tissue: Type of Lesion: THYROID GLAND: ADENOMA, Dose [Carcinogen]: 1000 MG/KG BW DHPN TWICE, 1500 MG/KG BW EHEN TWICE, 75 MG/KG BW 3 TIMES ADMINISTERED OVER FIRST 3 WK, Promoter: NONE USED). Further, the “tumour outcome (control, treated, inhibition, significance)” value is 1/14 (7%), 1/15 (7%), 0%, not significant (Carcinogen: 2,2'-DIHYDROXY-DI-N-PROPYLNITROSAMINE, 53609-64-6, N-ETHYL-N-HYDROXYETHYLNITROSAMINE, 13147-25-6, 3,2'-DIMETHYL-4-AMINO-, Carcinogen: 2,2'-DIHYDROXY-DI-N-PROPYLNITROSAMINE, 53609-64-6, N-ETHYL-N-HYDROXYETHYLNITROSAMINE, 13147-25-6, 3,2'-DIMETHYL-4-AMINO-, Dose [Inhibitor]: 0, 0.2% IN DIET FOR 32 WK BEGINNING 1 WK POST CARCINOGEN TREATMENT (STUDY DURATION: 36 WK), Strain/Sex: F344/MALE, Target Tissue: Type of Lesion: URINARY BLADDER: CARCINOMA, Dose [Carcinogen]: 1000 MG/KG BW DHPN TWICE, 1500 MG/KG BW EHEN TWICE, 75 MG/KG BW 3 TIMES ADMINISTERED OVER FIRST 3 WK, Promoter: NONE USED); 7/14 (50%), 6/15 (40%), 20%, not calculated (Carcinogen: 2,2'-DIHYDROXY-N-PROPYLNITROSAMINE, 53609-64-6, N-ETHYL-N-HYDROXYETHYL- NITROSAMINE, 13147-25-6, 3,2'-DIMETHYL-4-AMI, Carcinogen: 2,2'-DIHYDROXY-N-PROPYLNITROSAMINE, 53609-64-6, N-ETHYL-N-HYDROXYETHYL- NITROSAMINE, 13147-25-6, 3,2'-DIMETHYL-4-AMI, Dose [Inhibitor]: 0, 0.2% IN DIET BEGINNING 1 WK POST LAST CARCINOGEN DOSE AND CONTINUING FOR 32 WK (STUDY DURATION: 36 WK), Strain/Sex: F344/MALE, Target Tissue: Type of Lesion: LUNG: ADENOMA, Dose [Carcinogen]: 1000 MG/KG IP DHPN 2X , 1500 MG/KG GAV EHEN 2X AND 75 MG/KG SC DMAB 3X GIVEN OVER THE INITIAL 3 WK PERIOD AT 3-4 D INTER, Promoter: NONE USED); 3/20 (15%), 3/20 (15%), 0%, not significant (Carcinogen: 2-AMINO-1-METHYL-6-PHENYLIMIDAZO[4,5-B]PYRIDINE [105650-23-5], Dose [Inhibitor]: 0.1% IN DIET FOR 54 WK (STUDY DURATION: 54 WK), Strain/Sex: F344/DUCRJ/FEMALE, Target Tissue: Type of Lesion: COLON: ADENOMA OR ADENOCARCINOMA, Dose [Carcinogen]: 0.02% IN DIET FOR 54 WK (STUDY DURATION: 54 WK), Promoter: NONE); 8/20 (40%), 3/20 (15%), 63%, not significant (Carcinogen: 2-AMINO-1-METHYL-6-PHENYLIMIDAZO[4,5-B]PYRIDINE [105650-23-5], Dose [Inhibitor]: 0.1% IN DIET FOR 54 WK (STUDY DURATION: 54 WK), Strain/Sex: F344/DUCRJ/FEMALE, Target Tissue: Type of Lesion: MAMMARY GLAND: ADENOMA OR ADENOCARCINOMA, Dose [Carcinogen]: 0.02% IN DIET FOR 54 WK (STUDY DURATION: 54 WK), Promoter: NONE). The outcome (Carcinogen: 2,2'-DIHYDROXY-DI-N-PROPYLNITROSAMINE, 53609-64-6, N-ETHYL-N-HYDROXYETHYLNITROSAMINE, 13147-25-6, 3,2'-DIMETHYL-4-AMINO-, Carcinogen: 2,2'-DIHYDROXY-DI-N-PROPYLNITROSAMINE, 53609-64-6, N-ETHYL-N-HYDROXYETHYLNITROSAMINE, 13147-25-6, 3,2'-DIMETHYL-4-AMINO-, Dose [Inhibitor]: 0, 0.2% IN DIET FOR 32 WK BEGINNING 1 WK POST CARCINOGEN TREATMENT (STUDY DURATION: 36 WK), Strain/Sex: F344/MALE, Target Tissue: Type of Lesion: URINARY BLADDER: PAPILLOMA, Dose [Carcinogen]: 1000 MG/KG BW DHPN TWICE, 1500 MG/KG BW EHEN TWICE, 75 MG/KG BW ADMINISTERED OVER FIRST 3 WK, Promoter: NONE USED) is given as 0/14 (0%), 3/15 (20%), -100%, not significant.
